# Data reported in article PMC3989318, “Strong Vaccine-Induced CD8 T-Cell Responses Have Cytolytic Function in a Chimpanzee Clearing HCV Infection” (PLoS ONE, 2014).
# Read-outs that look alike come from different tables or passages of the source. Where no end group is shown, it is not given here.
# Assays:
# Patr-A*03∶01 [1] = biological target: T1, Patr-A*03∶01 (Pan troglodytes, UniProt P13748); assay: cell-based peptide-binding-competition-assay, Patr-A*03∶01; parameters: species or system chimpanzee (Pan troglodytes); settings: competition with 500nM biotinylated indicator peptide […], overnight, europium-streptavidin DELFIA
# T1 construct: expressed in transfected cells; host or cells: K562 or 721.221 cells
# Protocol: A cell-based peptide-binding-competition-assay was performed as previously described. In this assay, peptides are tested for binding to transfected cell lines expressing chimpanzee class-I molecules, while competing with a biotin-labeled reference-peptide. […] After overnight incubation, excess peptide was removed by washing and indicator-peptide bound to cells was quantified using the DELFIA-system and the Victor3 1420 multilabel counter (Perkin Elmer). The binding affinity of the indicator peptide was verified using its unlabeled peptide as competitor, this is referred to as standardized competitor [15].
# expanded CD8 T-cells = assay: intracellular cytokine staining of expanded CD8 T-cells after peptide restimulation; assay type: cell-based, chimpanzee (Pan troglodytes); settings: two weeks after the final vaccine boost
# Description: For stimulation and expansion of HCV-specific cells, two different NS3-peptide-pools were compiled: NS3vaccine was a mixture of 15-mer peptides with 11 amino acids overlap, covering the NS3-sequence of the vaccine constructs; NS3challenge was a mixture of 15-mer peptides with 11 amino acids overlap covering the NS3-variants observed in the inoculum. Identification of NS3 epitopes within NS3 was first performed via the matrix setup and confirmed in a second assay using individual peptides (peptide-sequences are listed in Table S1).
# Cells isolated before infection were expanded and tested for response against peptide-pool NS3vaccine, whereas cells isolated after challenge were tested against peptide-pool NS3challenge. PBMCs isolated at the day of challenge were stimulated in two separate cultures with either NS3vaccine or NS3challenge. […]
# The cytokine production profile of HCV-specific T-cell lines was determined by intracellular cytokine staining (ICS) after restimulation with NS3-peptides. […] Cell staining was analyzed on a FACSAria (BD Bioscience) and DIVA software Version 6.1.1.
# Patr-A*03∶01 [2] = biological target: T1, Patr-A*03∶01; parameters: method as in PMID 20696916; settings: unlabeled indicator peptide as competitor; ref [15]; read-out: IC50 of standardized competitor; cited from earlier work
# [3] = MHC class I transfected K562 or 721.221 cells, regression curves of three independent experiments
molecule,measurement,setting,value
CC(C)C[C@H](NC(=O)[C@@H](NC(=O)[C@H](C)NC(=O)[C@H](C)N)[C@@H](C)O)C(=O)NCC(=O)N[C@@H](Cc1ccccc1)C(=O)NCC(=O)N[C@@H](C)C(=O)N[C@@H](Cc1ccc(O)cc1)C(=O)O,IC50,Patr-A*03∶01 [1]; [3],200 nM
CSCC[C@H](NC(=O)[C@H](Cc1ccc(O)cc1)NC(=O)[C@H](C)NC(=O)CNC(=O)[C@H](Cc1ccccc1)NC(=O)CNC(=O)[C@@H](N)CC(C)C)C(=O)N[C@@H](CO)C(=O)N[C@@H](CCCCN)C(=O)O,IC50,Patr-A*03∶01 [1]; [3],30 nM
"IRTGVRTITTGGPIT [p64, 15-mer NS3 peptide]",cytokine induction in expanded CD8 T-cells,expanded CD8 T-cells; Vac1,did not induce cytokine production
same,cytokine induction in expanded CD8 T-cells,expanded CD8 T-cells; Vac2,moderate dual IFNγ/IL-2 and IFNγ/TNFa cytokine production
KGGLRPRAG [reference compound],IC50,"Patr-A*03∶01 [1]; transfected K562 or 721.221 cells, two individual experiments",8200 nM
VAATLGFGAYMSKAH [p59],IC50,Patr-A*03∶01 [1]; [3],60 nM
"standardized competitor peptide of Patr-A*03∶01: unlabeled peptide of the A*03∶01 indicator peptide, used as competitor (ATALECVYK; Unlabeled: no biotin on Cys6, which carries biotin in the indicator form)",IC50,Patr-A*03∶01 [2],1500 nM
